Measurements as given in patent publication US20070128217A1 (priority 2003, published 2007).

Assays:
[1] = test system: control sera (pooled serum of ten healthy LUMC hospital workers; commercial negative donor pooled serum from the Dutch bloodbank); type: binding, human; parameters: Binding of Control serum LUMC to linear peptides / Binding of Control serum Blood-bank to linear peptides / Binding of Control serum LUMC to looped peptides / Binding of Control Serum Blood-Bank to Looped peptides / Binding of Control serum LUMC to linear peptides of the protein M of SARS-CoV Urbani / Binding of Control serum Blood-bank to linear peptides of the protein M of SARS-CoV Urbani / Binding of Control serum LUMC to looped peptides of the protein M of SARS-CoV Urbani / Binding of Control Serum Blood-Bank to Looped peptides of the protein M of SARS-CoV Urbani: unit not given here
[2] = test system: rabbit serum obtained by immunizing a rabbit with the SARS-CoV strain Frankfurt 1; type: binding; parameters: Binding of a rabbit serum to linear peptides / Binding of a rabbit serum to looped peptides / Rabbit serum linear peptides / Rabbit serum looped peptides / Binding of a rabbit serum to linear peptides of protein N of SARS-CoV Urbani (Rabbit serum linear peptides) / Binding of a rabbit serum to looped/cyclic peptides of protein N of SARS-CoV Urbani (Rabbit serum looped peptides): unit not given here
[3] = test system: antibodies in sera from SARS patients (sera 1a, 1b, 2, 6, 37, 62, London, SARS-yellow, SARS-green); type: binding, human; parameters: Binding of serum 6 to linear peptides of protein X1 of SARS-CoV Urbani / Binding of serum 37 to linear peptides of protein X1 of SARS-CoV Urbani / Binding of serum 6 to looped/cyclic peptide (PEPSCAN-ELISA) / Binding of serum 37 to looped/cyclic peptide (PEPSCAN-ELISA) / Binding of serum 37 to looped/cyclic peptides of protein X1 of SARS-CoV Urbani / Binding of serum 6 to linear peptides of protein X2 / Binding of serum 37 to linear peptides of protein X2 / Binding of serum 37 to looped/cyclic peptides of protein X2 of SARS-CoV Urbani / Binding of serum 6 to linear peptides of protein M of SARS-CoV Urbani / Binding of serum 37 to linear peptides of protein M of SARS-CoV Urbani / Binding of serum 6 to looped/cyclic peptides of protein M of SARS-CoV Urbani / Binding of serum 37 to looped/cyclic peptides of protein M of SARS-CoV Urbani / Binding of serum 6 to linear peptides of protein X3 of SARS-CoV Urbani / Binding of serum 37 to linear peptides of protein X3 of SARS-CoV Urbani / Binding of serum 37 to looped/cyclic peptides of protein X3 of SARS-CoV Urbani / Binding of serum 6 to linear peptides of protein X4 of SARS-CoV Urbani / Binding of serum 37 to linear peptides of protein X4 of SARS-CoV Urbani / Binding of serum 37 to looped/cyclic peptides of protein X4 of SARS-CoV Urbani / Binding of serum 6 to linear peptides of protein X5 of SARS-CoV Urbani / Binding of serum 37 to linear peptides of protein X5 of SARS-CoV Urbani / Binding of serum 37 to looped/cyclic peptides of protein X5 of SARS-CoV Urbani / Binding of serum 6 to linear peptides of protein N of SARS-CoV Urbani / Binding of serum 37 to linear peptides of protein N of SARS-CoV Urbani / Binding of serum 6 to linear peptide (PEPSCAN-ELISA) / Binding of serum 1a to looped/cyclic peptides of protein N of SARS-CoV Urbani / Binding of serum 1b to looped/cyclic peptides of protein N of SARS-CoV Urbani / Binding of serum 2 to looped/cyclic peptides of protein N of SARS-CoV Urbani / Binding of serum 6 to looped/cyclic peptides of protein N of SARS-CoV Urbani / Binding of serum 37 to looped/cyclic peptides of protein N of SARS-CoV Urbani / Binding of serum 62 to looped/cyclic peptides of protein N of SARS-CoV Urbani / Binding of serum London to looped/cyclic peptides of protein N of SARS-CoV Urbani / Binding of serum SARS-green to looped/cyclic peptides of protein N of SARS-CoV Urbani: unit not given here

LLQFAYSNRNRFLYI
Binding of Control Serum Blood-Bank to Looped peptides of the protein M of SARS-CoV Urbani [1]: 0.5
Binding of Control serum Blood-bank to linear peptides of the protein M of SARS-CoV Urbani [1]: 0.6
Binding of Control serum LUMC to linear peptides of the protein M of SARS-CoV Urbani [1]: 0.6
Binding of Control serum LUMC to looped peptides of the protein M of SARS-CoV Urbani [1]: 0.5
Rabbit serum linear peptides [2]: 0.2
Rabbit serum looped peptides [2]: 0.4
Binding of serum 1a to linear peptides of protein M of SARS-CoV Urbani [3]: 0.7
Binding of serum 1a to looped/cyclic peptides of protein M of SARS-CoV Urbani [3]: 0.7
Binding of serum 1b to linear peptides of protein M of SARS-CoV Urbani [3]: 0.6
Binding of serum 1b to looped/cyclic peptides of protein M of SARS-CoV Urbani [3]: 0.5
Binding of serum 2 to linear peptides of protein M of SARS-CoV Urbani [3]: 0.4
Binding of serum 2 to looped/cyclic peptides of protein M of SARS-CoV Urbani [3]: 0.6
Binding of serum 6 to linear peptides of protein M of SARS-CoV Urbani [3]: 0.3
Binding of serum 6 to looped/cyclic peptides of protein M of SARS-CoV Urbani [3]: 0.6
Binding of serum 37 to linear peptides of protein M of SARS-CoV Urbani [3]: 0.3
Binding of serum 37 to looped/cyclic peptides of protein M of SARS-CoV Urbani [3]: 0.5
Binding of serum 62 to linear peptides of protein M of SARS-CoV Urbani [3]: 0.3
Binding of serum 62 to looped/cyclic peptides of protein M of SARS-CoV Urbani [3]: 0.4
Binding of serum London to linear peptides of protein M of SARS-CoV Urbani [3]: 0.3
Binding of serum London to looped/cyclic peptides of protein M of SARS-CoV Urbani [3]: 0.2
Binding of serum SARS-green to linear peptides of protein M of SARS-CoV Urbani [3]: 0.5
Binding of serum SARS-green to looped/cyclic peptides of protein M of SARS-CoV Urbani [3]: 0.1
Binding of serum SARS-yellow to linear peptides of protein M of SARS-CoV Urbani [3]: 0.2
Binding of serum SARS-yellow to looped/cyclic peptides of protein M of SARS-CoV Urbani [3]: 0.5

LLWPVTLACFVLAAV
Binding of Control Serum Blood-Bank to Looped peptides of the protein M of SARS-CoV Urbani [1]: 0.6
Binding of Control serum Blood-bank to linear peptides of the protein M of SARS-CoV Urbani [1]: 0.7
Binding of Control serum LUMC to linear peptides of the protein M of SARS-CoV Urbani [1]: 0.7
Binding of Control serum LUMC to looped peptides of the protein M of SARS-CoV Urbani [1]: 0.7
Rabbit serum linear peptides [2]: 0.2
Rabbit serum looped peptides [2]: 0.3
Binding of serum 1a to linear peptides of protein M of SARS-CoV Urbani [3]: 0.7
Binding of serum 1a to looped/cyclic peptides of protein M of SARS-CoV Urbani [3]: 0.9
Binding of serum 1b to linear peptides of protein M of SARS-CoV Urbani [3]: 0.5
Binding of serum 1b to looped/cyclic peptides of protein M of SARS-CoV Urbani [3]: 0.5
Binding of serum 2 to linear peptides of protein M of SARS-CoV Urbani [3]: 0.6
Binding of serum 2 to looped/cyclic peptides of protein M of SARS-CoV Urbani [3]: 0.9
Binding of serum 6 to linear peptides of protein M of SARS-CoV Urbani [3]: 0.4
Binding of serum 6 to looped/cyclic peptides of protein M of SARS-CoV Urbani [3]: 0.6
Binding of serum 37 to linear peptides of protein M of SARS-CoV Urbani [3]: 0.5
Binding of serum 37 to looped/cyclic peptides of protein M of SARS-CoV Urbani [3]: 0.8
Binding of serum 62 to linear peptides of protein M of SARS-CoV Urbani [3]: 0.5
Binding of serum 62 to looped/cyclic peptides of protein M of SARS-CoV Urbani [3]: 0.8
Binding of serum London to linear peptides of protein M of SARS-CoV Urbani [3]: 0.3
Binding of serum London to looped/cyclic peptides of protein M of SARS-CoV Urbani [3]: 0.3
Binding of serum SARS-green to linear peptides of protein M of SARS-CoV Urbani [3]: 0.5
Binding of serum SARS-green to looped/cyclic peptides of protein M of SARS-CoV Urbani [3]: 0.4
Binding of serum SARS-yellow to linear peptides of protein M of SARS-CoV Urbani [3]: 0.1
Binding of serum SARS-yellow to looped/cyclic peptides of protein M of SARS-CoV Urbani [3]: 0.9

LLYDANYFVCWHTHN
Binding of Control Serum Blood-Bank to Looped peptides [1]: 0.6
Binding of Control serum Blood-bank to linear peptides [1]: 0.8
Binding of Control serum LUMC to linear peptides [1]: 0.7
Binding of Control serum LUMC to looped peptides [1]: 0.5
Binding of a rabbit serum to linear peptides [2]: 0.1
Binding of a rabbit serum to looped peptides [2]: 0.5
Binding of serum 1a to linear peptides of protein X1 of SARS-CoV Urbani [3]: 0.9
Binding of serum 1a to looped/cyclic peptide (PEPSCAN-ELISA) [3]: 0.6
Binding of serum 1b to linear peptides of protein X1 of SARS-CoV Urbani [3]: 0.7
Binding of serum 1b to looped/cyclic peptide (PEPSCAN-ELISA) [3]: 0.5
Binding of serum 2 to linear peptides of protein X1 of SARS-CoV Urbani [3]: 0.6
Binding of serum 2 to looped/cyclic peptide (PEPSCAN-ELISA) [3]: 0.4
Binding of serum 6 to linear peptides of protein X1 of SARS-CoV Urbani [3]: 0.7
Binding of serum 6 to looped/cyclic peptide (PEPSCAN-ELISA) [3]: 0.4
Binding of serum 37 to linear peptides of protein X1 of SARS-CoV Urbani [3]: 0.7
Binding of serum 37 to looped/cyclic peptide (PEPSCAN-ELISA) [3]: 0.6
Binding of serum 62 to linear peptides of protein X1 of SARS-CoV Urbani [3]: 0.8
Binding of serum 62 to looped/cyclic peptide (PEPSCAN-ELISA) [3]: 0.6
Binding of serum London to linear peptides of protein X1 of SARS-CoV Urbani [3]: 0.4
Binding of serum London to looped/cyclic peptide (PEPSCAN-ELISA) [3]: 0.2
Binding of serum SARS-green to linear peptides of protein X1 of SARS-CoV Urbani [3]: 0.4
Binding of serum SARS-green to looped/cyclic peptide (PEPSCAN-ELISA) [3]: 0.3
Binding of serum SARS-yellow to linear peptides of protein X1 of SARS-CoV Urbani [3]: 0.5
Binding of serum SARS-yellow to looped/cyclic peptide (PEPSCAN-ELISA) [3]: 0.4

LMESELVIGAVIIRG
Binding of Control Serum Blood-Bank to Looped peptides of the protein M of SARS-CoV Urbani [1]: 0.7
Binding of Control serum Blood-bank to linear peptides of the protein M of SARS-CoV Urbani [1]: 0.8
Binding of Control serum LUMC to linear peptides of the protein M of SARS-CoV Urbani [1]: 0.5
Binding of Control serum LUMC to looped peptides of the protein M of SARS-CoV Urbani [1]: 0.6
Rabbit serum linear peptides [2]: 0.4
Rabbit serum looped peptides [2]: 0.2
Binding of serum 1a to linear peptides of protein M of SARS-CoV Urbani [3]: 0.7
Binding of serum 1a to looped/cyclic peptides of protein M of SARS-CoV Urbani [3]: 0.6
Binding of serum 1b to linear peptides of protein M of SARS-CoV Urbani [3]: 0.5
Binding of serum 1b to looped/cyclic peptides of protein M of SARS-CoV Urbani [3]: 0.6
Binding of serum 2 to linear peptides of protein M of SARS-CoV Urbani [3]: 0.7
Binding of serum 2 to looped/cyclic peptides of protein M of SARS-CoV Urbani [3]: 0.5
Binding of serum 6 to linear peptides of protein M of SARS-CoV Urbani [3]: 0.3
Binding of serum 6 to looped/cyclic peptides of protein M of SARS-CoV Urbani [3]: 0.4
Binding of serum 37 to linear peptides of protein M of SARS-CoV Urbani [3]: 0.9
Binding of serum 37 to looped/cyclic peptides of protein M of SARS-CoV Urbani [3]: 0.6
Binding of serum 62 to linear peptides of protein M of SARS-CoV Urbani [3]: 0.8
Binding of serum 62 to looped/cyclic peptides of protein M of SARS-CoV Urbani [3]: 0.6
Binding of serum London to linear peptides of protein M of SARS-CoV Urbani [3]: 0.3
Binding of serum London to looped/cyclic peptides of protein M of SARS-CoV Urbani [3]: 0.2
Binding of serum SARS-green to linear peptides of protein M of SARS-CoV Urbani [3]: 0.3
Binding of serum SARS-green to looped/cyclic peptides of protein M of SARS-CoV Urbani [3]: 0.3
Binding of serum SARS-yellow to linear peptides of protein M of SARS-CoV Urbani [3]: 0.1
Binding of serum SARS-yellow to looped/cyclic peptides of protein M of SARS-CoV Urbani [3]: 0.5
